Reference: US6027747A, “Process for the production of dry pharmaceutical forms and the thus obtained pharmaceutical compositions” (priority 1998, dated 2000)
“And” between values parts separate entries of the source, which are not always exact repeats. Equal entries are not always repeated.

Experiment: Kinetics of dissolution of fenofibrate (UV 278 nm)
Format: physicochemical
Settings: for kinetics of dissolution of fenofibrate: 5 mg/l, one value per dish, Dish 1 to 6 in order
Protocol: The system of measurements used for the galenical control of the solid dispersions was made of two members: an apparatus of dissolution DISSOLUTEST DT 6 from ERWEKA [Euraf 55 rue Deschanel 92400 Courbevoie (France)] and a peristaltic pump 505 SR WATSON-MARLOW from Prolabo. Each test of dissolution was performed in one liter of degassed distilled water at 37° C. and at a pH near neutral. A sample of 4 mg of estradiol (i.e. 25 mg co-precipitate) was introduced in each of the six reactors at time t=0 and the speed of stirring of the paddles was 100 rounds/min. The dosages by UV (absorption at 278 nm) were performed continuously and in a closed circuit of a multi-channel peristaltic pump, connecting the beakers of the Dissolutest to the dishes of the spectrophometer. The latter was linked to a recorder and to a printing machine to permit the measurement at steady intervals of every 3 minutes of the variations of the optical density, themselves being proportional to the variations of the concentration of the active ingredient in the dissolution medium.
This was identical to that used for the study of the kinetics of dissolution for the co-precipitates of estradiol.
Therefore, it had been decided to prepare a calibrating range at 5 mg/l as for progesterone and to determine the kinetics of dissolution while introducing an equivalent amount of co-precipitate.

kinetics of dissolution of fenofibrate (0 min): 0
kinetics of dissolution of fenofibrate (6 min): 92.1 and 95.78 and 91.05 and 90.52
kinetics of dissolution of fenofibrate (9 min): 87.89 and 91.05 and 86.31 and 85.78
SMILES: CC(C)OC(=O)C(C)(C)Oc1ccc(C(=O)c2ccc(Cl)cc2)cc1 [Fenofibrate]
kinetics of dissolution of fenofibrate (3 min): 95.26 and 98.94 and 93.68 and 94.21 and 93.15
kinetics of dissolution of fenofibrate (12 min): 83.68 and 86.31 and 82.1 and 83.15 and 80.52
kinetics of dissolution of fenofibrate (15 min): 80.52 and 83.15 and 78.42 and 80 and 76.84
kinetics of dissolution of fenofibrate (18 min): 77.89 and 77.36 and 80 and 75.26 and 74.21
kinetics of dissolution of fenofibrate (21 min): 74.73 and 76.84 and 71.57 and 73.68 and 71.05
kinetics of dissolution of fenofibrate (24 min): 72.1 and 73.68 and 68.94 and 71.05 and 68.42
kinetics of dissolution of fenofibrate (27 min): 70 and 71.57 and 66.84 and 68.94 and 66.31
kinetics of dissolution of fenofibrate (30 min): 68.42 and 67.89 and 69.47 and 64.73 and 67.36
recrystallization in the course of the dissolution test (in words): a recrystallization of fenofibrate had been observed
